# Assay results as given in patent US8084210B2, “Methods for the assessment of drug response” (Theranostics Laboratory, priority 2008, dated 2011).
# Values joined by “and” are separate entries in the source; they are usually repeats but may differ in a detail not shown here. Equal entries are not always repeated. Where two headings read alike, the source gives them in different places.
# Key:
# [1] = tested on: ADP-induced platelet aggregation or activation; details: low inhibition of ADP-induced platelet aggregation or activation; cited from earlier work
# [2] = cited from earlier work
# P2Y12 receptor = target: T1, P2Y12 receptor (Homo sapiens, UniProt Q9H244); experiment: Platelet function by VerifyNow P2Y12 analyser in elective PCI patients given clopidogrel (PRINC trial); format: in vivo; details: for inhibition at 75 mg / inhibition at 150 mg: human
# T1 construct: light transmittance through whole blood, to measure platelet agglutination; from tissue; host or cells: Platelets in citrated whole blood (arterial or venous) of patients
# Excerpt: The study protocol was approved by the Northern Regional Ethics Committee of New Zealand. Eligible patients were defined as all-corners for elective percutaneous coronary intervention who were on aspirin and naëve to clopidogrel. […] Patients were randomised into equal groups using a computerised random number generator. Block randomisation was not used, explaining the unbalanced grouping to treatment allocations. Clopidogrel was broken in half and repackaged into gelatine capsules packed with lactose powder to match placebo. Investigators and subjects were blinded to treatment allocation. A target of 120 patients was predefined for completion of the study. […] At discharge patients were randomized to receive either 75 mg or 150 mg once daily for one week and regular 75 mg once daily dosing thereafter. Adherence to the treatment regimen was tested by a phone interview and pill count. Arterial blood was sampled through 6Fr femoral sheaths and transferred immediately to 3.2% citrate 2 ml vacutainer tubes (Cat. #454321 Greiner Vacuette®, Greiner, Kremsmuenster, Austria), using a 20 G needle and syringe. After sheath removal blood was drawn by venepucture directly into vacutainer tubes. After collection the tubes were inverted four times for adequate mixing of the anticoagulant and left for ten minutes at 24 degrees before testing. Platelet function was tested at baseline, two, four and seven hours from first clopidogrel loading and at seven days. […] This device uses fibrinogen coated microbeads, an agonist of adenosine diphosphate (ADP) and light transmittance through whole blood, to measure platelet agglutination. The output of the device is measured as the proprietary platelet response unit (PRU). […] Percent inhibition is reported as the percentage change from baseline using a BASE unit. This BASE unit is derived from a second channel run parallel with the ADP channel using the agonist iso-TRAP (Thrombin Receptor Activating Peptide). From this point “percentage inhibition” will reflect this formula: % Inhibition=[(BASE−PRU)×100]/BASE. […] (2004) and Lev E I et al (2006)). The principal time point of interest for comparisons of genotype to drug response was specified as two hours after the first loading dose as at this point all patients had received only 600 mg. […] The effect of different dosages on response in genotype groups was assessed at four hours.
# [3] = in vivo; cited from earlier work
# T1 sequence (Q9H244 whole entry): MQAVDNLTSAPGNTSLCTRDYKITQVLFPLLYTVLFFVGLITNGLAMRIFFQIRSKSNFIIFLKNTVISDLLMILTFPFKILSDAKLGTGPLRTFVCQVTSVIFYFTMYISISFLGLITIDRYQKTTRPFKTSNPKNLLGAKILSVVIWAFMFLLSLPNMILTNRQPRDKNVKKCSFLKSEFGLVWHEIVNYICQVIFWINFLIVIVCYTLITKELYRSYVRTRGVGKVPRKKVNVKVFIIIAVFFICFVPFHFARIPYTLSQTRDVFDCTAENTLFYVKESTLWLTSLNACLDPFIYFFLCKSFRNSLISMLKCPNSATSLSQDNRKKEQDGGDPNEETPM
smiles,measurement,setting,value
"COC(=O)[C@H](c1ccccc1Cl)N1CCc2sccc2C1 [clopidogrel, (+)-(S)-methyl 2-(2-chlorophenyl)-2-(6,7-dihydrothieno[3,2-c]pyridin-5(4H)-yl)acetate]",Patients classified as poor responders or resistant,[1],20-40%
same,Bioavailability,[2]; in vivo,approximately 50%
same,Elimination half life,[2]; in vivo,7.2 to 7.6 h
same,Time to peak effect after dosing,[2]; in vivo,six
same,Share of a dose converted by esterases to inactive metabolites,[2]; inactivation pathway,~85%
same,Platelet inhibition,"P2Y12 receptor; 75 mg maintenance dose, CYP2C19*2 or *4 carriers",24+/−18%
same,Non-responders (seven hour percent inhibition <10%),"P2Y12 receptor; 600 mg (low dose) group, six out of 26",26%
same,Platelet inhibition,"P2Y12 receptor; 600 mg loading dose, CYP2C19*2 or *4 carriers",16+/−13%
same,Non-responders (seven hour percent inhibition <10%),"P2Y12 receptor; 1,200 mg (high dose) group, two out of 37",5%
same,Platelet inhibition,"P2Y12 receptor; 2 hours after 600 mg, CYP2C19*1*1 carriers",26+/−20%
same,Platelet inhibition,"P2Y12 receptor; 2 hours after 600 mg, CYP2C19*2, *4 and *17 carriers",13+/−20%
same,Platelet inhibition,"P2Y12 receptor; four hours, 600 mg loading dose",23.7%
same,Platelet inhibition,"P2Y12 receptor; four hours, 600 mg loading dose, CYP2C19*1*1 carriers",35+/−27%
same,Platelet inhibition,"P2Y12 receptor; four hours, 1200 mg loading dose, CYP2C19*1*1 carriers",51+/−28%
same,Platelet inhibition,"P2Y12 receptor; four hours, 1,200 mg split loading dose",42%
same,Platelet inhibition,"P2Y12 receptor; higher (150 mg) maintenance dose, CYP2C19*2 or *4 carriers",49+/−31%
same,Platelet inhibition,"P2Y12 receptor; higher (1200 mg) loading dose, CYP2C19*2 or *4 carriers",36+/−24%
same,inhibition at 75 mg,"P2Y12 receptor; 75 mg daily maintenance dose, CYP2C19*1*1 carriers",40%
same,inhibition at 150 mg,"P2Y12 receptor; 150 mg daily maintenance dose, CYP2C19*1*1 carriers",51%
same,inhibition at 75 mg,"P2Y12 receptor; one week, 75 mg once daily",28.8%
same,inhibition at 150 mg,"P2Y12 receptor; one week, 150 mg once daily",49.8%
same,Platelet inhibition,"P2Y12 receptor; seven days, 600 mg loading dose group",35.7%
same,Platelet inhibition,"P2Y12 receptor; seven days, 1,200 mg split loading dose group",44.5%
same,Platelet inhibition,"P2Y12 receptor; seven hours, 600 mg loading dose",28.7%
same,Platelet inhibition,"P2Y12 receptor; seven hours, 1,200 mg split loading dose",48.9%
same,Platelet inhibition,"P2Y12 receptor; seven hours, two individuals carrying both 2C19 and 2C9 poor responder genotypes",8% and 11%
same,Platelet inhibition,"P2Y12 receptor; two hours after 600 mg, two P2Y12 H2 haplotype CC homozygotes",< 2%
"CC(=O)Oc1cc2c(s1)CCN(C(C(=O)C1CC1)c1ccccc1F)C2 (stereo not shown) [prasugrel, 5-[2-cyclopropyl-1-(2-fluorophenyl)-2-oxoethyl]-4,5,6,7-tetrahydrothieno[3,2-c]pyridin-2-yl acetate]",Elimination half life,[3],3.7 h
